Assay results taken from the supplement of paper PMC9013687.

How the values were obtained:
[1] = tested on: Danio rerio embryo
Protocol: (§1)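 Zebrafish embryos (UFZ-OBI strain) were exposed from 2 hpf for 48 h (2 dpf) or 96 h (4 dpf) at 28 °C; spontaneous tail coiling was scored at 25 hpf. Morphological features from automated image analysis (FishInspector), heart rate and locomotor response were fitted with drc models. Quantal endpoints were dichotomised at 2.5 SD from controls and fitted with a log-logistic model; heart rate, pigmentation and STC were normalised to the replicate control mean. Betamethasone was tested as betamethasone dipropionate, diflorasone as diflorasone diacetate.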

[2] = tested on: Danio rerio embryo; details: exposure time: 4 dpf
Protocol: as §1

[3] = tested on: Danio rerio embryo; assay: EC50 Curvature_Increase
Protocol: as §1

[4] = tested on: Danio rerio embryo; assay: EC50 Body length_Decrease
Protocol: as §1

[5] = tested on: Danio rerio embryo; assay: EC50 Bladder size_Decrease; details: exposure time: 4 dpf
Protocol: as §1

[6] = tested on: Danio rerio embryo; assay: EC50 Pericard size_Increase
Protocol: as §1

[7] = tested on: Danio rerio embryo; assay: EC50 Yolk sac size_Increase; details: exposure time: 4 dpf
Protocol: as §1

[8] = tested on: Danio rerio embryo; assay: EC50 Eye-jaw distance_Decrease; details: exposure time: 4 dpf
Protocol: as §1

[9] = tested on: Danio rerio embryo; assay: EC50 Otolith-eye distance_Decrease; details: exposure time: 4 dpf
Protocol: as §1

[10] = tested on: Danio rerio embryo; assay: EC10 LMR dark; higher = less potent; details: exposure time: 4 dpf
Protocol: as §1

[11] = tested on: Danio rerio embryo; assay: EC20 LMR dark; higher = less potent; details: exposure time: 4 dpf
Protocol: as §1

[12] = tested on: Danio rerio embryo; assay: EC20 Any effect; higher = less potent
Protocol: as §1

[13] = tested on: Danio rerio embryo; assay: EC10 Any effect; higher = less potent
Protocol: as §1

[14] = tested on: Danio rerio embryo; assay: EC10 Curvature_Increase; higher = less potent
Protocol: as §1

[15] = tested on: Danio rerio embryo; assay: EC20 Curvature_Increase; higher = less potent
Protocol: as §1

[16] = tested on: Danio rerio embryo; assay: EC20 Body length_Decrease; higher = less potent
Protocol: as §1

[17] = tested on: Danio rerio embryo; assay: EC10 Body length_Decrease; higher = less potent
Protocol: as §1

[18] = tested on: Danio rerio embryo; assay: EC10 Bladder size_Decrease; higher = less potent; details: exposure time: 4 dpf
Protocol: as §1

[19] = tested on: Danio rerio embryo; assay: EC20 Bladder size_Decrease; higher = less potent; details: exposure time: 4 dpf
Protocol: as §1

[20] = tested on: Danio rerio embryo; assay: EC20 Yolk sac size_Increase; higher = less potent; details: exposure time: 4 dpf
Protocol: as §1

[21] = tested on: Danio rerio embryo; assay: EC20 Pericard size_Increase; higher = less potent
Protocol: as §1

[22] = tested on: Danio rerio embryo; assay: EC10 Yolk sac size_Increase; higher = less potent; details: exposure time: 4 dpf
Protocol: as §1

[23] = tested on: Danio rerio embryo; assay: EC10 Pericard size_Increase; higher = less potent
Protocol: as §1

[24] = tested on: Danio rerio embryo; assay: EC20 Eye-jaw distance_Decrease; higher = less potent; details: exposure time: 4 dpf
Protocol: as §1

[25] = tested on: Danio rerio embryo; assay: EC10 Eye-jaw distance_Decrease; higher = less potent; details: exposure time: 4 dpf
Protocol: as §1

[26] = tested on: Danio rerio embryo; assay: EC20 Otolith-eye distance_Decrease; higher = less potent; details: exposure time: 4 dpf
Protocol: as §1

[27] = tested on: Danio rerio embryo; assay: EC10 Otolith-eye distance_Decrease; higher = less potent; details: exposure time: 4 dpf
Protocol: as §1

[28] = tested on: Danio rerio embryo; assay: spontaneous tail coiling frequency (coils/min/embryo); higher = more spontaneous movement; details: 25 hpf
Protocol: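 Spontaneous tail coilings of zebrafish embryos exposed from 2 hpf were recorded at 24-25 hpf in 1-min videos and detected by a KNIME workflow from grey-value variance. Betamethasone was tested as the dipropionate, diflorasone as the diacetate.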

O=C(O)CCc1nc(-c2ccccc2)c(-c2ccccc2)o1 [Oxaprozin]
Details | EC10 Any effect [µM] | EC10 Body length Decrease [µM] | EC10 Curvature Increase [µM] | EC10 Pericard size Increase [µM] | EC20 Any effect [µM] | EC20 Body length Decrease [µM] | EC20 Curvature Increase [µM] | EC20 Pericard size Increase [µM] | EC50 Any effect [µM] | EC50 Body length Decrease [µM] | EC50 Curvature Increase [µM] | EC50 Pericard size Increase [µM] | EC50 Pigmentation increase [µM] | spontaneous tail coiling frequency
[1], exposure time: 2 dpf | – | – | – | – | – | – | – | – | 30.2 | – | – | – | – | –
[1], exposure time: 4 dpf | – | – | – | – | – | – | – | – | 20.2 | – | – | – | 35.6 | –
[3], exposure time: 2 dpf | – | – | – | – | – | – | – | – | – | – | 61.4 | – | – | –
[3], exposure time: 4 dpf | – | – | – | – | – | – | – | – | – | – | 30.8 | – | – | –
[4], exposure time: 2 dpf | – | – | – | – | – | – | – | – | – | 38 | – | – | – | –
[4], exposure time: 4 dpf | – | – | – | – | – | – | – | – | – | 27.1 | – | – | – | –
[6], exposure time: 2 dpf | – | – | – | – | – | – | – | – | – | – | – | 55.9 | – | –
[6], exposure time: 4 dpf | – | – | – | – | – | – | – | – | – | – | – | 19.1 | – | –
[12], exposure time: 2 dpf | – | – | – | – | 19.3 | – | – | – | – | – | – | – | – | –
[12], exposure time: 4 dpf | – | – | – | – | 15.3 | – | – | – | – | – | – | – | – | –
[13], exposure time: 2 dpf | 14.9 | – | – | – | – | – | – | – | – | – | – | – | – | –
[13], exposure time: 4 dpf | 13 | – | – | – | – | – | – | – | – | – | – | – | – | –
[14], exposure time: 2 dpf | – | – | 28.7 | – | – | – | – | – | – | – | – | – | – | –
[14], exposure time: 4 dpf | – | – | 21.8 | – | – | – | – | – | – | – | – | – | – | –
[15], exposure time: 2 dpf | – | – | – | – | – | – | 38 | – | – | – | – | – | – | –
[15], exposure time: 4 dpf | – | – | – | – | – | – | 24.8 | – | – | – | – | – | – | –
[16], exposure time: 2 dpf | – | – | – | – | – | 29.3 | – | – | – | – | – | – | – | –
[16], exposure time: 4 dpf | – | – | – | – | – | 21.8 | – | – | – | – | – | – | – | –
[17], exposure time: 2 dpf | – | 25.1 | – | – | – | – | – | – | – | – | – | – | – | –
[17], exposure time: 4 dpf | – | 19.3 | – | – | – | – | – | – | – | – | – | – | – | –
[21], exposure time: 2 dpf | – | – | – | – | – | – | – | 38.6 | – | – | – | – | – | –
[21], exposure time: 4 dpf | – | – | – | – | – | – | – | 14.1 | – | – | – | – | – | –
[23], exposure time: 2 dpf | – | – | – | 31.1 | – | – | – | – | – | – | – | – | – | –
[23], exposure time: 4 dpf | – | – | – | 11.8 | – | – | – | – | – | – | – | – | – | –
[28], 15.2 µM | – | – | – | – | – | – | – | – | – | – | – | – | – | 4.43
[28], 17 µM | – | – | – | – | – | – | – | – | – | – | – | – | – | 3.98
[28], 22.7 µM | – | – | – | – | – | – | – | – | – | – | – | – | – | 4.29
[28], 34.1 µM | – | – | – | – | – | – | – | – | – | – | – | – | – | 4.85
[28], 51.1 µM | – | – | – | – | – | – | – | – | – | – | – | – | – | 5.84
[28], 68.2 µM | – | – | – | – | – | – | – | – | – | – | – | – | – | 4.34
[28], 85.2 µM | – | – | – | – | – | – | – | – | – | – | – | – | – | 8.82
[28], 102.3 µM | – | – | – | – | – | – | – | – | – | – | – | – | – | 6.78

Details | EC10 Bladder size Decrease [µM] | EC10 Eye-jaw distance Decrease [µM] | EC10 LMR dark [µM] | EC10 Otolith-eye distance Decrease [µM] | EC10 Yolk sac size Increase [µM] | EC20 Bladder size Decrease [µM] | EC20 Eye-jaw distance Decrease [µM] | EC20 LMR dark [µM] | EC20 Otolith-eye distance Decrease [µM] | EC20 Yolk sac size Increase [µM] | EC50 Bladder size Decrease [µM] | EC50 Eye-jaw distance Decrease [µM] | EC50 LMR dark [µM] | EC50 Otolith-eye distance Decrease [µM] | EC50 Yolk sac size Increase [µM]
[2] | – | – | – | – | – | – | – | – | – | – | – | – | 16.2 | – | –
[5] | – | – | – | – | – | – | – | – | – | – | 12.2 | – | – | – | –
[7] | – | – | – | – | – | – | – | – | – | – | – | – | – | – | 22.6
[8] | – | – | – | – | – | – | – | – | – | – | – | 21.5 | – | – | –
[9] | – | – | – | – | – | – | – | – | – | – | – | – | – | 24.8 | –
[10] | – | – | 11.8 | – | – | – | – | – | – | – | – | – | – | – | –
[11] | – | – | – | – | – | – | – | 13.3 | – | – | – | – | – | – | –
[18] | 11.5 | – | – | – | – | – | – | – | – | – | – | – | – | – | –
[19] | – | – | – | – | – | 11.8 | – | – | – | – | – | – | – | – | –
[20] | – | – | – | – | – | – | – | – | – | 16.3 | – | – | – | – | –
[22] | – | – | – | – | 13.4 | – | – | – | – | – | – | – | – | – | –
[24] | – | – | – | – | – | – | 15.4 | – | – | – | – | – | – | – | –
[25] | – | 12.7 | – | – | – | – | – | – | – | – | – | – | – | – | –
[26] | – | – | – | – | – | – | – | – | 19.2 | – | – | – | – | – | –
[27] | – | – | – | 16.5 | – | – | – | – | – | – | – | – | – | – | –
